{"source": "ChEMBL document CHEMBL1133360", "about": "“Design, synthesis, and biological activity of a cyclic peptide: an inhibitor of HIV-1 tat-TAR interactions in human cells” (Bioorg Med Chem Lett, 2000)", "key": {"[1]": {"assay": "Inhibitory activity of compound was tested against transcriptional activation by Tat protein in human cells", "assay_type": "functional, cell-based"}, "[2]": {"organism": "Homo sapiens", "assay": "Percent of Tat-activation inhibited at 500 uM of the compound", "assay_type": "functional"}}, "note": "Where a SMILES comes first, the peptide text is derived from it. [ ]: non-standard residue; d: D form.", "data": [{"smiles": "NCCCC[C@H](N)C(=O)N[C@H](CCCCN)C(=O)N[C@@H](CC(N)=O)C(=O)O", "note": "(H-Lys-[dK]-Asn-OH)", "values": [{"measurement": "IC50", "setting": "[1]", "value": "~50", "unit": "nM"}]}, {"smiles": "NCCCC[C@@H]1NC(=O)[C@@H](N)CCCCNC(=O)CC[C@@H](C(=O)O)NC(=O)[C@H](CC(N)=O)NC(=O)[C@@H](CCCCN)NC1=O", "values": [{"measurement": "inhibition", "setting": "[2]", "value": "> 90", "unit": "%"}, {"measurement": "IC50", "setting": "[1]", "value": "~40", "unit": "nM"}]}]}
